Key:
Glucocorticoid receptor [1] = biological target: T1, Glucocorticoid receptor (Homo sapiens, UniProt P04150); test: Displacement of [3H]dexamethasone from human glucocorticoid receptor expressed in recombinant baculovirus
T1 sequence (P04150 whole entry): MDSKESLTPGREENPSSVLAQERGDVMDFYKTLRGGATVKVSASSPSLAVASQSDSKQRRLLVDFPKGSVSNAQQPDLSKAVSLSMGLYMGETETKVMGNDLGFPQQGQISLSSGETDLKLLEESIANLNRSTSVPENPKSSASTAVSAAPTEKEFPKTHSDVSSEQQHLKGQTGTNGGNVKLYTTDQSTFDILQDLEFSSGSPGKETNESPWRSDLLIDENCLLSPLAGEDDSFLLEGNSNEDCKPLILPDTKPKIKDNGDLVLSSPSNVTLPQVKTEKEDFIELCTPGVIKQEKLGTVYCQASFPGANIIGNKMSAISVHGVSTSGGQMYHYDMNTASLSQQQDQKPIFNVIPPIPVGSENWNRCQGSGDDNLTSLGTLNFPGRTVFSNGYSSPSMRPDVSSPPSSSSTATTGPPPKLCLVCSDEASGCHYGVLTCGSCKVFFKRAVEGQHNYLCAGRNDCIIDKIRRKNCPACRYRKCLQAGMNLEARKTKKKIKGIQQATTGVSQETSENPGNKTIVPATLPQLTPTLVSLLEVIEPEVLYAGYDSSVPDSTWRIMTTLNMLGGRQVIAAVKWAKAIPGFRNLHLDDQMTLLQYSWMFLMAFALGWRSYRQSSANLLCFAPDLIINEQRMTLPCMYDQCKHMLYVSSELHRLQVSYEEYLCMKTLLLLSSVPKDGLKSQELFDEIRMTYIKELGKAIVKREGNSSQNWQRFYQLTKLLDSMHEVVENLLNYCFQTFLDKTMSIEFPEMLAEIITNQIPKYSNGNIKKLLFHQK

Glucocorticoid receptor [2] = biological target: T1, Glucocorticoid receptor; test: Antagonist activity at human glucocorticoid receptor in SW1353 cells assessed as inhibition of dexamethasone-induced luciferase expression by MMTV5 reporter gene assay; format: functional, cell-based
Glucocorticoid receptor [3] = biological target: T1, Glucocorticoid receptor; test: Binding affinity to glucocorticoid receptor in SW1353 cells by whole-cell binding assay; format: cell-based
CYP2C9 = CYP2C9 (Homo sapiens, UniProt P11712); test: Inhibition of CYP2C9 at 1 uM; format: ADME
CYP2C9, sequence (P11712 whole entry): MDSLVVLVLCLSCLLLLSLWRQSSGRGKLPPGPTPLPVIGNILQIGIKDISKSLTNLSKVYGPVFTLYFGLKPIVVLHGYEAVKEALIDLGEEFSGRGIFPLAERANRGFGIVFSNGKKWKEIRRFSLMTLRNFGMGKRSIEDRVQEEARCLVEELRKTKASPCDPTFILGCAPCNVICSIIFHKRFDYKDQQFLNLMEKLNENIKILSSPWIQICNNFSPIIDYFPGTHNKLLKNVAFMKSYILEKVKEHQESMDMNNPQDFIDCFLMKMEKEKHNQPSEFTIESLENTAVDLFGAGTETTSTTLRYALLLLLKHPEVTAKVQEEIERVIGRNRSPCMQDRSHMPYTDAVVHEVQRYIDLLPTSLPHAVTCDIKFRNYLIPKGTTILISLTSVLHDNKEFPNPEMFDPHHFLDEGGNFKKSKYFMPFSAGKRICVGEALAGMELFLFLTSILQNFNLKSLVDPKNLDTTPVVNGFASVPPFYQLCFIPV

CYP2C19 = CYP2C19 (Homo sapiens, UniProt P33261); test: Inhibition of CYP2C19 at 1 uM; format: ADME
CYP2C19, sequence (P33261 whole entry): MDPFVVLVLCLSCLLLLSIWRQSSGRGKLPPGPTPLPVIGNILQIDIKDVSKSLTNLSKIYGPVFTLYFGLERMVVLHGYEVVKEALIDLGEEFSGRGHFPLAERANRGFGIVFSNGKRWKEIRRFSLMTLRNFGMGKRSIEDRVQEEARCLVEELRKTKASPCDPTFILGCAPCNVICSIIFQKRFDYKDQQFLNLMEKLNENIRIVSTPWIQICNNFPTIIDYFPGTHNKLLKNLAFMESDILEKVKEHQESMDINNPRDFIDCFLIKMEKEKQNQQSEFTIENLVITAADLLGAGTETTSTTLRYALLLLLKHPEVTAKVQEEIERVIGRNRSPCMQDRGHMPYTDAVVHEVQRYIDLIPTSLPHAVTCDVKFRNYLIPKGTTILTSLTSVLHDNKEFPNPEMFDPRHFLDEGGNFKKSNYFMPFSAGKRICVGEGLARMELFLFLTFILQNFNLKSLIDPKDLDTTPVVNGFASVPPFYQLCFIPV

CYP2D6 = CYP2D6 (Homo sapiens, UniProt P10635); test: Inhibition of CYP2D6 at 1 uM; format: ADME
CYP2D6, sequence (P10635 whole entry): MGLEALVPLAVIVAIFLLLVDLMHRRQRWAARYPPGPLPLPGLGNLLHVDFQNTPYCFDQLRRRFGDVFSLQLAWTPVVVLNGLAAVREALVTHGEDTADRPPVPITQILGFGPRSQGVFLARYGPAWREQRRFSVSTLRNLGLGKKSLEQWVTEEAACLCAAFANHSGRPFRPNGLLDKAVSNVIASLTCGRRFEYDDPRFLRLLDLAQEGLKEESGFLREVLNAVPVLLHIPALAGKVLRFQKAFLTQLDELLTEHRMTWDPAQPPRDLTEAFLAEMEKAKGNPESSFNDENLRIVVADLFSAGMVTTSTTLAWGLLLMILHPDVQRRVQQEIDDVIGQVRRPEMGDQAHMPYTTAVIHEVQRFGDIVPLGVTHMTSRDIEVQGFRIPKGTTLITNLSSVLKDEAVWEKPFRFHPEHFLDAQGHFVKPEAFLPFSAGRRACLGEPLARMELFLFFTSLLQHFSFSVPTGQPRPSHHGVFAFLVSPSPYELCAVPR

Row | Structure (SMILES) | Ki (Glucocorticoid receptor [1]) [nM] | other results
1 | CC(C)(C)c1ccc(S(=O)(=O)N2CCC3=CC(=O)CCC3(Cc3ccc(N4CCOCC4)cc3)C2)cc1 (centres undefined) | 10 | Ki (Glucocorticoid receptor [2]): 400 nM
2 | COc1ccc(N2CCC3=CC(=O)CCC3(Cc3ccccc3)C2)cc1 (centres undefined) | > 5000 | 
3 | CC(C)(C)c1ccc(S(=O)(=O)N2CCC3=CC(=O)CC[C@]3(Cc3ccccc3)C2)cc1 | 4 | Ki (Glucocorticoid receptor [2]): 200 nM
4 | O=C1C=C2CCN(S(=O)(=O)c3ccc(-c4ccccc4)cc3)CC2(Cc2ccccc2)CC1 (centres undefined) | 55 | 
5 | CS(=O)(=O)Nc1cccc(S(=O)(=O)N2CCC3=CC(=O)CCC3(Cc3ccccc3)C2)c1 (centres undefined) | 2100 | 
6 | O=C1C=C2CCN(S(=O)(=O)c3ccc(N4CCOCC4)cc3)CC2(Cc2ccccc2)CC1 (centres undefined) | 64 | 
7 | CC(C)(C)c1ccc(S(=O)(=O)N2CCC3=CC(=O)CCC3(Cc3ccc(Br)cc3)C2)cc1 (centres undefined) | 9 | Ki (Glucocorticoid receptor [2]): 200 nM
8 | COc1cccc(CC23CCC(=O)C=C2CCN(S(=O)(=O)c2ccc(C(C)(C)C)cc2)C3)c1 (centres undefined) | 76 | 
9 | COc1ccc(C[C@]23CCC(=O)C=C2CCN(S(=O)(=O)c2ccc(C(C)(C)C)cc2)C3)cc1 | 4 | Ki (Glucocorticoid receptor [3]): 352 nM; Ki (Glucocorticoid receptor [2]): 200 nM
10 | CC(C)(C)c1ccc(S(=O)(=O)N2CCC3=CC(=O)CC[C@@]3(Cc3ccccc3)C2)cc1 | > 10000 | 
11 | CC#C[C@@]1(O)CC[C@@]2(Cc3ccccc3)c3ccc(O)cc3CC[C@@H]2C1 | 0.6 | Ki (Glucocorticoid receptor [3]): 5.5 nM; Ki (Glucocorticoid receptor [2]): 4 nM
12 | CC(C)(C)c1ccc(S(=O)(=O)N2CCC3=CC(=O)CCC3(Cc3ccc(-c4ccncc4)cc3)C2)cc1 (racemic) | 2 | inhibition at 1 µM (CYP2C9): 76%; inhibition at 1 µM (CYP2C19): 61%; inhibition at 1 µM (CYP2D6): 44%; Ki (Glucocorticoid receptor [2]): 180 nM
13 | CC(C)(C)c1ccc(S(=O)(=O)N2CCC3=CC(=O)CCC3(Cc3ccc(N4CCCCC4)cc3)C2)cc1 (racemic) | 9 | Ki (Glucocorticoid receptor [2]): > 1000 nM
14 | CCCCS(=O)(=O)N1CCC2=CC(=O)CCC2(Cc2ccccc2)C1 (racemic) | > 10000 | 
15 | O=C1C=C2CCN(Cc3ccccc3)CC2(Cc2ccccc2)CC1 (racemic) | 3700 | 
16 | O=C1C=C2CCN(S(=O)(=O)c3cccc(Cl)c3)CC2(Cc2ccccc2)CC1 (racemic) | 432 | 
17 | O=C1C=C2CCN(S(=O)(=O)c3ccc(Cl)cc3)CC2(Cc2ccccc2)CC1 (racemic) | 193 | 
18 | CC(C)(C)c1ccc(S(=O)(=O)N2CCC3=CC(=O)CCC3(Cc3ccccc3)C2)cc1 (racemic) | 14 | Ki (Glucocorticoid receptor [2]): > 1000 nM
19 | COc1ccc(CN2CCC3=CC(=O)CCC3(Cc3ccccc3)C2)cc1 (racemic) | 2250 | 
20 | O=C1C=C2CCN(Cc3ccncc3)CC2(Cc2ccccc2)CC1 (racemic) | > 10000 | 
21 | O=C1C=C2CCN(S(=O)(=O)c3ccccc3C(F)(F)F)CC2(Cc2ccccc2)CC1 (racemic) | 4450 | 
22 | CS(=O)(=O)Nc1ccccc1S(=O)(=O)N1CCC2=CC(=O)CCC2(Cc2ccccc2)C1 (racemic) | 1950 | 
23 | O=C1C=C2CCN(S(=O)(=O)c3cccc([N+](=O)[O-])c3)CC2(Cc2ccccc2)CC1 (racemic) | 3000 | 
24 | O=C1C=C2CCN(S(=O)(=O)c3ccc([N+](=O)[O-])cc3)CC2(Cc2ccccc2)CC1 (racemic) | 1250 | 
25 | COc1cccc(S(=O)(=O)N2CCC3=CC(=O)CCC3(Cc3ccccc3)C2)c1 (racemic) | 196 | 

Row | Structure (SMILES) | Ki (Glucocorticoid receptor [1]) [nM] | other results
26 | CS(=O)(=O)Nc1ccc(S(=O)(=O)N2CCC3=CC(=O)CCC3(Cc3ccccc3)C2)cc1 (racemic) | 950 | 
27 | CCCCC(=O)N1CCC2=CC(=O)CCC2(Cc2ccccc2)C1 (racemic) | > 10000 | 
28 | O=C1C=C2CCN(C(=O)Nc3ccccc3)CC2(Cc2ccccc2)CC1 (racemic) | > 10000 | 
29 | COc1ccc(S(=O)(=O)N2CCC3=CC(=O)CCC3(Cc3ccccc3)C2)cc1 (racemic) | 216 | 
30 | COc1ccc(S(=O)(=O)N2CCC3=CC(=O)CCC3(Cc3ccccc3)C2)cc1OC (racemic) | 1300 | 
31 | O=C1C=C2CCN(S(=O)(=O)c3ccc(Oc4ccccc4)cc3)CC2(Cc2ccccc2)CC1 (racemic) | 163 | 
32 | CC(=O)Nc1ccc(S(=O)(=O)N2CCC3=CC(=O)CCC3(Cc3ccccc3)C2)cc1 (racemic) | 750 | 
33 | CN(C)c1ccc(S(=O)(=O)N2CCC3=CC(=O)CCC3(Cc3ccccc3)C2)cc1 (racemic) | 113 | 
34 | CC(C)(C)c1ccc(S(=O)(=O)N2CCC3=CC(=O)CCC3(Cc3ccc([N+](=O)[O-])cc3)C2)cc1 (racemic) | 45 | 
35 | CN(C)c1ccc(CC23CCC(=O)C=C2CCN(S(=O)(=O)c2ccc(C(C)(C)C)cc2)C3)cc1 (racemic) | 15 | Ki (Glucocorticoid receptor [2]): > 1000 nM
36 | CC(C)(C)c1ccc(S(=O)(=O)N2CCC3=CC(=O)CCC3(Cc3ccc(C#N)cc3)C2)cc1 (racemic) | 65 | 
37 | CC(C)(C)c1ccc(S(=O)(=O)N2CCC3=CC(=O)CCC3(Cc3ccc(N)cc3)C2)cc1 (racemic) | 99 | 
38 | CC(C)(C)c1ccc(S(=O)(=O)N2CCC3=CC(=O)CCC3(Cc3ccc(NS(C)(=O)=O)cc3)C2)cc1 (racemic) | 13 | Ki (Glucocorticoid receptor [2]): > 1000 nM
39 | CN(C)S(=O)(=O)Nc1ccc(CC23CCC(=O)C=C2CCN(S(=O)(=O)c2ccc(C(C)(C)C)cc2)C3)cc1 (racemic) | 13 | Ki (Glucocorticoid receptor [2]): 323 nM
40 | N#Cc1ccccc1S(=O)(=O)N1CCC2=CC(=O)CCC2(Cc2ccccc2)C1 (racemic) | 1000 | 
41 | O=C1C=C2CCN(S(=O)(=O)c3ccc(F)cc3)CC2(Cc2ccccc2)CC1 (racemic) | 800 | 
42 | COc1cccc(OC)c1S(=O)(=O)N1CCC2=CC(=O)CCC2(Cc2ccccc2)C1 (racemic) | > 10000 | 
43 | O=C1C=C2CCN(S(=O)(=O)c3ccccc3)CC2(Cc2ccccc2)CC1 (racemic) | 225 | 
44 | O=C1C=C2CCN(S(=O)(=O)Nc3ccccc3)CC2(Cc2ccccc2)CC1 (racemic) | 1200 | 
45 | CS(=O)(=O)c1ccc(S(=O)(=O)N2CCC3=CC(=O)CCC3(Cc3ccccc3)C2)cc1 (racemic) | 137 | 
46 | Cc1ccc(S(=O)(=O)N2CCC3=CC(=O)CCC3(Cc3ccccc3)C2)cc1 (racemic) | 99 | 
47 | CC(=O)Nc1ccc(CC23CCC(=O)C=C2CCN(S(=O)(=O)c2ccc(C(C)(C)C)cc2)C3)cc1 (racemic) | 56 | Ki (Glucocorticoid receptor [2]): > 1000 nM
48 | CC(C)(C)c1ccc(S(=O)(=O)N2CCC3=CC(=O)CCC3(Cc3ccc(F)cc3)C2)cc1 (racemic) | 5 | Ki (Glucocorticoid receptor [2]): > 1000 nM
49 | COc1ccc(CC23CCC(=O)C=C2CCN(S(=O)(=O)c2ccc(C(C)(C)C)cc2)C3)cc1 (racemic) | 6 | Ki (Glucocorticoid receptor [2]): 230 nM
50 | O=C1C=C2CCN(C(=O)c3ccccc3)CC2(Cc2ccccc2)CC1 (racemic) | > 10000 | 
